In PubChem BioAssay (NCI):
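The compound was tested at five concentrations on cells cultured in 96-well plates, with a 48-hour exposure period. TGI is the concentration that stops growth completely.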

Legend:
Assay in all cases: NCI tumour cell line growth inhibition, 48 h
MDA-MB-231 breast = system: MDA-MB-231 breast
OVCAR-5 ovarian = system: OVCAR-5 ovarian
ACHN renal = system: ACHN renal
PC-3 prostate = system: PC-3 prostate
SK-OV-3 ovarian = system: SK-OV-3 ovarian
SN12C renal = system: SN12C renal
HCC-2998 colon = system: HCC-2998 colon
SR leukemia = system: SR leukemia
SNB-19 CNS = system: SNB-19 CNS
EKVX NSCLC = system: EKVX NSCLC
SK-MEL-2 melanoma = system: SK-MEL-2 melanoma
MCF7 breast = system: MCF7 breast
LOX IMVI melanoma = system: LOX IMVI melanoma
HOP-92 NSCLC = system: HOP-92 NSCLC
SF-295 CNS = system: SF-295 CNS
T-47D breast = system: T-47D breast
CCRF-CEM leukemia = system: CCRF-CEM leukemia
OVCAR-4 ovarian = system: OVCAR-4 ovarian
SNB-75 CNS = system: SNB-75 CNS
TK-10 renal = system: TK-10 renal
MOLT-4 leukemia = system: MOLT-4 leukemia
HCT-116 colon = system: HCT-116 colon
A549 NSCLC = system: A549 NSCLC
SK-MEL-5 melanoma = system: SK-MEL-5 melanoma
NCI-H226 lung = system: NCI-H226 lung
A498 renal = system: A498 renal
UO-31 renal = system: UO-31 renal
SK-MEL-28 melanoma = system: SK-MEL-28 melanoma
COLO 205 colon = system: COLO 205 colon
MDA-MB-435 = system: MDA-MB-435
HL-60(TB) leukemia = system: HL-60(TB) leukemia
SW-620 colon = system: SW-620 colon
NCI-H460 lung = system: NCI-H460 lung
IGROV1 ovarian = system: IGROV1 ovarian
NCI-H522 lung = system: NCI-H522 lung
M14 melanoma = system: M14 melanoma
786-0 renal = system: 786-0 renal
MDA-N = system: MDA-N
RXF 393 renal = system: RXF 393 renal
KM12 colon = system: KM12 colon
NCI-H23 lung = system: NCI-H23 lung
HCT-15 colon = system: HCT-15 colon
RPMI-8226 leukemia = system: RPMI-8226 leukemia
UACC-62 melanoma = system: UACC-62 melanoma
BT-549 breast = system: BT-549 breast
DU-145 prostate = system: DU-145 prostate
MALME-3M melanoma = system: MALME-3M melanoma
HT29 colon = system: HT29 colon
OVCAR-8 ovarian = system: OVCAR-8 ovarian
UACC-257 melanoma = system: UACC-257 melanoma
OVCAR-3 ovarian = system: OVCAR-3 ovarian
K-562 leukemia = system: K-562 leukemia
NCI/ADR-RES ovarian = system: NCI/ADR-RES ovarian
HOP-62 NSCLC = system: HOP-62 NSCLC
U251 CNS = system: U251 CNS
CAKI-1 renal = system: CAKI-1 renal
SF-539 CNS = system: SF-539 CNS
SF-268 CNS = system: SF-268 CNS
HS 578T breast = system: HS 578T breast

Compound: COc1cc(/C=C2/SC(c3ccccc3)N(c3cc(Cl)ccc3Cl)C2=O)cc(OC)c1OC (stereo not given)
- TGI (MDA-MB-231 breast): > 100 µM
- TGI (OVCAR-5 ovarian): > 100 µM
- TGI (ACHN renal): > 100 µM
- TGI (PC-3 prostate): > 100 µM
- TGI (SK-OV-3 ovarian): > 100 µM
- TGI (SN12C renal): > 100 µM
- TGI (HCC-2998 colon): > 100 µM
- TGI (SR leukemia): > 100 µM
- TGI (SNB-19 CNS): > 100 µM
- TGI (EKVX NSCLC): > 100 µM
- TGI (SK-MEL-2 melanoma): > 100 µM
- TGI (MCF7 breast): > 100 µM
- TGI (LOX IMVI melanoma): > 100 µM
- TGI (HOP-92 NSCLC): > 100 µM
- TGI (SF-295 CNS): > 100 µM
- TGI (T-47D breast): > 100 µM
- TGI (CCRF-CEM leukemia): > 100 µM
- TGI (OVCAR-4 ovarian): > 100 µM
- TGI (SNB-75 CNS): > 100 µM
- TGI (TK-10 renal): > 100 µM
- TGI (MOLT-4 leukemia): > 100 µM
- TGI (HCT-116 colon): > 100 µM
- TGI (A549 NSCLC): > 100 µM
- TGI (SK-MEL-5 melanoma): > 100 µM
- TGI (NCI-H226 lung): > 100 µM
- TGI (A498 renal): > 100 µM
- TGI (UO-31 renal): > 100 µM
- TGI (SK-MEL-28 melanoma): > 100 µM
- TGI (COLO 205 colon): > 100 µM
- TGI (MDA-MB-435): 61.1 µM
- TGI (HL-60(TB) leukemia): > 100 µM
- TGI (SW-620 colon): > 100 µM
- TGI (NCI-H460 lung): > 100 µM
- TGI (IGROV1 ovarian): > 100 µM
- TGI (NCI-H522 lung): > 100 µM
- TGI (M14 melanoma): > 100 µM
- TGI (786-0 renal): > 100 µM
- TGI (MDA-N): 37.6 µM
- TGI (RXF 393 renal): > 100 µM
- TGI (KM12 colon): > 100 µM
- TGI (NCI-H23 lung): > 100 µM
- TGI (HCT-15 colon): > 100 µM
- TGI (RPMI-8226 leukemia): > 100 µM
- TGI (UACC-62 melanoma): > 100 µM
- TGI (BT-549 breast): > 100 µM
- TGI (DU-145 prostate): > 100 µM
- TGI (MALME-3M melanoma): > 100 µM
- TGI (HT29 colon): > 100 µM
- TGI (OVCAR-8 ovarian): > 100 µM
- TGI (UACC-257 melanoma): > 100 µM
- TGI (OVCAR-3 ovarian): > 100 µM
- TGI (K-562 leukemia): > 100 µM
- TGI (NCI/ADR-RES ovarian): > 100 µM
- TGI (HOP-62 NSCLC): > 100 µM
- TGI (U251 CNS): > 100 µM
- TGI (CAKI-1 renal): 90.8 µM

Compound: CC(C1CCCC1=O)C1CCCC1=O (stereo not given)
- TGI (MDA-MB-231 breast): > 100 µM
- TGI (OVCAR-5 ovarian): > 100 µM
- TGI (ACHN renal): > 100 µM
- TGI (PC-3 prostate): > 100 µM
- TGI (SK-OV-3 ovarian): > 100 µM
- TGI (SN12C renal): > 100 µM
- TGI (HCC-2998 colon): > 100 µM
- TGI (SR leukemia): > 100 µM
- TGI (SNB-19 CNS): > 100 µM
- TGI (EKVX NSCLC): > 100 µM
- TGI (SK-MEL-2 melanoma): > 100 µM
- TGI (MCF7 breast): > 100 µM
- TGI (LOX IMVI melanoma): > 100 µM
- TGI (SF-295 CNS): > 100 µM
- TGI (T-47D breast): > 100 µM
- TGI (CCRF-CEM leukemia): > 100 µM
- TGI (OVCAR-4 ovarian): > 100 µM
- TGI (SNB-75 CNS): > 100 µM
- TGI (TK-10 renal): > 100 µM
- TGI (MOLT-4 leukemia): > 100 µM
- TGI (HCT-116 colon): > 100 µM
- TGI (A549 NSCLC): > 100 µM
- TGI (SK-MEL-5 melanoma): > 100 µM
- TGI (NCI-H226 lung): > 100 µM
- TGI (UO-31 renal): > 100 µM
- TGI (SK-MEL-28 melanoma): > 100 µM
- TGI (COLO 205 colon): > 100 µM
- TGI (SF-539 CNS): > 100 µM
- TGI (SF-268 CNS): > 100 µM
- TGI (HL-60(TB) leukemia): > 100 µM
- TGI (SW-620 colon): > 100 µM
- TGI (NCI-H460 lung): > 100 µM
- TGI (IGROV1 ovarian): > 100 µM
- TGI (NCI-H522 lung): > 100 µM
- TGI (M14 melanoma): > 100 µM
- TGI (786-0 renal): > 100 µM
- TGI (HS 578T breast): > 100 µM
- TGI (MDA-N): > 100 µM
- TGI (RXF 393 renal): > 100 µM
- TGI (KM12 colon): > 100 µM
- TGI (NCI-H23 lung): > 100 µM
- TGI (HCT-15 colon): > 100 µM
- TGI (UACC-62 melanoma): > 100 µM
- TGI (BT-549 breast): > 100 µM
- TGI (DU-145 prostate): > 100 µM
- TGI (MALME-3M melanoma): > 100 µM
- TGI (HT29 colon): > 100 µM
- TGI (OVCAR-8 ovarian): > 100 µM
- TGI (UACC-257 melanoma): > 100 µM
- TGI (K-562 leukemia): > 100 µM
- TGI (NCI/ADR-RES ovarian): > 100 µM
- TGI (HOP-62 NSCLC): > 100 µM
- TGI (U251 CNS): > 100 µM
- TGI (CAKI-1 renal): > 100 µM
